Test results taken from ChEMBL document CHEMBL6114972, “Proteolysis targeting chimera of BI-2536 induces potent dual degradation of PLK1 and BET proteins” (Bioorg Med Chem, 2025).
Active and inactive are the calls of the source. The rule behind the calls is not given here.

Key:
[1] = biological target: T1, Protein cereblon/Bromodomain-containing protein 4 (Homo sapiens, UniProt O60885+Q96SW2); assay: Protac activity at CRBN/BRD4 in human HeLa cells assessed as BRD4 degradation at 500 nM measured after 12 hrs by Western blot analysis; assay type: cell-based
[2] = biological target: T2, Protein cereblon/Serine/threonine-protein kinase PLK1 (Homo sapiens, UniProt P53350+Q96SW2); assay: Protac activity at CRBN/PLK1 in human HeLa cells assessed as PLK1 degradation at 500 nM measured after 12 hrs by Western blot analysis; assay type: cell-based
Target sequence in this assay (P53350 2-603 limits assumed): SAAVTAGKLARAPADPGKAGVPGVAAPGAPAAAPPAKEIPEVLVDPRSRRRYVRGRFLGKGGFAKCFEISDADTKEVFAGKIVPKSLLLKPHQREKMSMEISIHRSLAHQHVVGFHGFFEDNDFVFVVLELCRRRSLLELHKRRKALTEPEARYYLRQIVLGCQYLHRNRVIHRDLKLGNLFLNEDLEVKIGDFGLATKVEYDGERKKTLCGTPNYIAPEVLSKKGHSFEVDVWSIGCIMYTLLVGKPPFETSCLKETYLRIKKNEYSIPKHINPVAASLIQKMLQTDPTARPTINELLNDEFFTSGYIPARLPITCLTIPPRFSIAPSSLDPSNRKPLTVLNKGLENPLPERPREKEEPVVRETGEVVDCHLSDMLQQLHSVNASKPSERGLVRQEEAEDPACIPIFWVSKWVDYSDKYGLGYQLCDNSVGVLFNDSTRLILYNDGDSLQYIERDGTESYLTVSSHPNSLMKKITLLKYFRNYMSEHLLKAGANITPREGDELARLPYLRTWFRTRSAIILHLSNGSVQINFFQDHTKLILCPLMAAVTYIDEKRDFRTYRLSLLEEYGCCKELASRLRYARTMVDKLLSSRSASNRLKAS
Target sequence in this assay (Q96SW2 whole entry partner): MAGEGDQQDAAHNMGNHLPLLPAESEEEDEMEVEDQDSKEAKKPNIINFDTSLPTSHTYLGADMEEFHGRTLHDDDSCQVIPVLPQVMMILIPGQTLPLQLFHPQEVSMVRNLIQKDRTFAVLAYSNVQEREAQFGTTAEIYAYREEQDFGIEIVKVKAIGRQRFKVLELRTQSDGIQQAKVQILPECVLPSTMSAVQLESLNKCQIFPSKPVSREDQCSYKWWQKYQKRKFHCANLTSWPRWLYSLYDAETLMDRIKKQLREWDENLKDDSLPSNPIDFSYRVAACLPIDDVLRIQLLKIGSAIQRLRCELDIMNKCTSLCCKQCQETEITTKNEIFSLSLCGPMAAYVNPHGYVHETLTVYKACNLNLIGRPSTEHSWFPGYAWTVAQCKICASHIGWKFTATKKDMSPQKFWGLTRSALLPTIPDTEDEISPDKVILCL

[3] = system: CWR22R; assay: Cytotoxicity against human 22Rv1 cells assessed as reduction in cell viability measured after 3 days by CCK-8 assay; assay type: functional, cell-based; details: 22Rv1, 72 h
[4] = biological target: T1, Protein cereblon/Bromodomain-containing protein 4; assay: Protac activity at CRBN/BRD4 in human HeLa cells assessed as BRD4 degradation at 3 nM measured after 36 hrs by Western blot analysis; assay type: cell-based
[5] = biological target: T3, Protein cereblon/Bromodomain-containing protein 3 (Homo sapiens, UniProt Q15059+Q96SW2); assay: Protac activity at CRBN/BRD3 in human HeLa cells assessed as BRD3 degradation at 3 nM measured after 36 hrs by Western blot analysis; assay type: cell-based
Target sequence in this assay (Q15059 2-726 limits assumed): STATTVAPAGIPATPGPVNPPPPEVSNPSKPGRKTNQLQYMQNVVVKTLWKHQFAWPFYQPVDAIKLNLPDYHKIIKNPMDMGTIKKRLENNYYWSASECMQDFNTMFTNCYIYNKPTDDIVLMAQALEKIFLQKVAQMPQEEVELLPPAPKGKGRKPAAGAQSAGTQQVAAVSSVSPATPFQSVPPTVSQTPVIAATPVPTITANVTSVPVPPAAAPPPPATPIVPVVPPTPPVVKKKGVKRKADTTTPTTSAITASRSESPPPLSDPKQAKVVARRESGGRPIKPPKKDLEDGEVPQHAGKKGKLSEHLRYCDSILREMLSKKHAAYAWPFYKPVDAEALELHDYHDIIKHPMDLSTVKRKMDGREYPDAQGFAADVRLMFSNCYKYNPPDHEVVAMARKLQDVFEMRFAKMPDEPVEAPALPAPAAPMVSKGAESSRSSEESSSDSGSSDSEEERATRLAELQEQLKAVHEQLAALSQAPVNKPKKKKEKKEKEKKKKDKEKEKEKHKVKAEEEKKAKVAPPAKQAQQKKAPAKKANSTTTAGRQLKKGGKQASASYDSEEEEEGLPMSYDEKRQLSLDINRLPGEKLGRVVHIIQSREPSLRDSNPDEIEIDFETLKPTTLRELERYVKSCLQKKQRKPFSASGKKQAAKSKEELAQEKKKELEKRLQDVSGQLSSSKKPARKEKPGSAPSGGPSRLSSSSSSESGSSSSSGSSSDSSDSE
Target sequence in this assay (Q96SW2 whole entry partner): as the sequence (Q96SW2 whole entry partner) above

[6] = biological target: T2, Protein cereblon/Serine/threonine-protein kinase PLK1; assay: Protac activity at CRBN/PLK1 in human 22Rv1 cells assessed as PLK1 degradation measured after 36 hrs by Western blot analysis; assay type: cell-based
[7] = biological target: T3, Protein cereblon/Bromodomain-containing protein 3; assay: Protac activity at CRBN/BRD3 in human HeLa cells assessed as BRD3 degradation measured after 36 hrs by Western blot analysis; assay type: cell-based
[8] = system: CWR22R; assay: Down regulation of XIAP mRNA expression in human 22Rv1 cells at 20 to 100 nM measured after 36 hrs by RT-qPCR analysis; assay type: functional, cell-based; details: dose 20-100 nM
[9] = biological target: T2, Protein cereblon/Serine/threonine-protein kinase PLK1; assay: Protac activity at CRBN/PLK1 in human 22Rv1 cells assessed as PLK1 degradation at 50 nM measured after 36 hrs by Western blot analysis; assay type: cell-based
Target sequence in this assay (P53350 2-603 limits assumed): as the sequence (P53350 2-603 limits assumed) above
Target sequence in this assay (Q96SW2 whole entry partner): as the sequence (Q96SW2 whole entry partner) above

[10] = system: CWR22R; assay: Down regulation of PRDM1 mRNA expression in human 22Rv1 cells at 20 to 100 nM measured after 36 hrs by RT-qPCR analysis; assay type: functional, cell-based; details: dose 20-100 nM
[11] = system: CWR22R; assay: Effect on P21 mRNA expression in human 22Rv1 cells at 20 to 100 nM measured after 36 hrs by RT-qPCR analysis; assay type: functional, cell-based; details: dose 20-100 nM
[12] = biological target: T4, Protein cereblon/Bromodomain-containing protein 2 (Homo sapiens, UniProt P25440+Q96SW2); assay: Protac activity at CRBN/BRD2 in human HeLa cells assessed as BRD2 degradation measured after 36 hrs by Western blot analysis relative to control; assay type: cell-based
Target sequence in this assay (P25440 whole entry, looked up): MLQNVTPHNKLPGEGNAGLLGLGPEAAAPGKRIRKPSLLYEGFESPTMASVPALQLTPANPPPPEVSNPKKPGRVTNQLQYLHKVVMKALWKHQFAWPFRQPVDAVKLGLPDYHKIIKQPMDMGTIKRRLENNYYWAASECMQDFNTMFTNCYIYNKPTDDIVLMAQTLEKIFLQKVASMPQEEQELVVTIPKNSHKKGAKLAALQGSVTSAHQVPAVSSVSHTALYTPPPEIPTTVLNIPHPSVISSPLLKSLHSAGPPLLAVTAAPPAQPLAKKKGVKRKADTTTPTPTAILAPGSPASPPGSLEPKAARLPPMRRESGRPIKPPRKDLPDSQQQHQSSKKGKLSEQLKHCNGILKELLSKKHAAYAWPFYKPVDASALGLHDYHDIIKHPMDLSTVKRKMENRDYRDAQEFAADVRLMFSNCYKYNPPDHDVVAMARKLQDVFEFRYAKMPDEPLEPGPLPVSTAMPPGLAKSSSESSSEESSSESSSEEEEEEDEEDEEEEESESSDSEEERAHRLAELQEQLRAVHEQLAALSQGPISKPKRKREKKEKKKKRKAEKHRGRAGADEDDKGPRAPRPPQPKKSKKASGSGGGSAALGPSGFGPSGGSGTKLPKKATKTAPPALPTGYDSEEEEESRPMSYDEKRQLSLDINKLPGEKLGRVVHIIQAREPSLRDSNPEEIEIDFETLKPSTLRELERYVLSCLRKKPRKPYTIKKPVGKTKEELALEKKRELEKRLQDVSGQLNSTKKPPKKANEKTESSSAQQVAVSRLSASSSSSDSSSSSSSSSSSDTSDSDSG
Target sequence in this assay (Q96SW2 whole entry, looked up): as the sequence (Q96SW2 whole entry partner) above

[13] = biological target: T2, Protein cereblon/Serine/threonine-protein kinase PLK1; assay: Protac activity at CRBN/PLK1 in human 22Rv1 cells assessed as PLK1 degradation at 10 to 500 nM measured after 36 hrs by Western blot analysis; assay type: cell-based; details: dose 10-500 nM
Target sequence in this assay (P53350 2-603 limits assumed): as the sequence (P53350 2-603 limits assumed) above
Target sequence in this assay (Q96SW2 whole entry partner): as the sequence (Q96SW2 whole entry partner) above

[14] = system: CWR22R; assay: Antiproliferative activity against human 22Rv1 cells assessed as reduction in cell viability up to 100000 nM incubated for 24 hrs prior to compound washout measured after 1 week by crystal violet staining based assay; assay type: functional
[15] = system: HeLa; assay: Cytotoxicity against human HeLa cells assessed as reduction in cell viability measured after 3 days by CCK-8 assay; assay type: functional, cell-based; details: 72 h
[16] = biological target: T2, Protein cereblon/Serine/threonine-protein kinase PLK1; assay: Protac activity at CRBN/PLK1 in human 22Rv1 cells assessed as PLK1 degradation at 50 nM measured after 24 hrs by Western blot analysis; assay type: cell-based
Target sequence in this assay (P53350 2-603 limits assumed): as the sequence (P53350 2-603 limits assumed) above
Target sequence in this assay (Q96SW2 whole entry partner): as the sequence (Q96SW2 whole entry partner) above

[17] = biological target: T1, Protein cereblon/Bromodomain-containing protein 4; assay: Protac activity at CRBN/BRD4 in human HeLa cells assessed as BRD4 degradation at 10 nM measured after 36 hrs by Western blot analysis; assay type: cell-based
[18] = biological target: T3, Protein cereblon/Bromodomain-containing protein 3; assay: Protac activity at CRBN/BRD3 in human HeLa cells assessed as BRD3 degradation measured after 36 hrs by Western blot analysis relative to control; assay type: cell-based
Target sequence in this assay (Q15059 2-726 limits assumed): as the sequence (Q15059 2-726 limits assumed) above
Target sequence in this assay (Q96SW2 whole entry partner): as the sequence (Q96SW2 whole entry partner) above

[19] = biological target: T4, Protein cereblon/Bromodomain-containing protein 2; assay: Protac activity at CRBN/BRD2 in human 22Rv1 cells assessed as BRD2 degradation measured after 36 hrs by Western blot analysis relative to control; assay type: cell-based
Target sequence in this assay (P25440 whole entry, looked up): as the sequence (P25440 whole entry, looked up) above
Target sequence in this assay (Q96SW2 whole entry, looked up): as the sequence (Q96SW2 whole entry partner) above

[20] = biological target: T1, Protein cereblon/Bromodomain-containing protein 4; assay: Protac activity at CRBN/BRD4 in human 22Rv1 cells assessed as BRD4 degradation at 50 nM measured after 2 hrs by Western blot analysis; assay type: cell-based
[21] = biological target: T2, Protein cereblon/Serine/threonine-protein kinase PLK1; assay: Protac activity at CRBN/PLK1 in human HeLa cells assessed as PLK1 degradation measured after 36 hrs by Western blot analysis; assay type: cell-based
[22] = biological target: T2, Protein cereblon/Serine/threonine-protein kinase PLK1; assay: Protac activity at CRBN/PLK1 in human HeLa cells assessed as PLK1 degradation at 500 nM measured after 36 hrs by Western blot analysis; assay type: cell-based
Target sequence in this assay (P53350 2-603 limits assumed): as the sequence (P53350 2-603 limits assumed) above
Target sequence in this assay (Q96SW2 whole entry partner): as the sequence (Q96SW2 whole entry partner) above

[23] = biological target: T1, Protein cereblon/Bromodomain-containing protein 4; assay: Protac activity at CRBN/BRD4 in human HeLa cells assessed as BRD4 degradation measured after 36 hrs by Western blot analysis relative to control; assay type: cell-based
[24] = biological target: T2, Protein cereblon/Serine/threonine-protein kinase PLK1; assay: Protac activity at CRBN/PLK1 in human HeLa cells assessed as PLK1 degradation at 10 nM measured after 36 hrs by Western blot analysis; assay type: cell-based
Target sequence in this assay (P53350 2-603 limits assumed): as the sequence (P53350 2-603 limits assumed) above
Target sequence in this assay (Q96SW2 whole entry partner): as the sequence (Q96SW2 whole entry partner) above

[25] = biological target: T1, Protein cereblon/Bromodomain-containing protein 4; assay: Protac activity at CRBN/BRD4 in human 22Rv1 cells assessed as down regulation of MYC gene expression at 20 to 100 nM measured after 36 hrs by RT-qPCR analysis; assay type: cell-based; details: dose 20-100 nM
[26] = biological target: T3, Protein cereblon/Bromodomain-containing protein 3; assay: Protac activity at CRBN/BRD3 in human 22Rv1 cells assessed as BRD3 degradation measured after 36 hrs by Western blot analysis relative to control; assay type: cell-based
Target sequence in this assay (Q15059 2-726 limits assumed): as the sequence (Q15059 2-726 limits assumed) above
Target sequence in this assay (Q96SW2 whole entry partner): as the sequence (Q96SW2 whole entry partner) above

[27] = biological target: T2, Protein cereblon/Serine/threonine-protein kinase PLK1; assay: Protac activity at CRBN/PLK1 in human MDA-MB-231 cells assessed as PLK1 degradation at 10 nM measured after 36 hrs by Western blot analysis; assay type: cell-based
[28] = biological target: T2, Protein cereblon/Serine/threonine-protein kinase PLK1; assay: Protac activity at CRBN/PLK1 in human 22Rv1 cells assessed as PLK1 degradation at 2 uM measured after 12 to 24 hrs by Western blot analysis; assay type: cell-based; details: time 12-24 hrs
[29] = biological target: T4, Protein cereblon/Bromodomain-containing protein 2; assay: Protac activity at CRBN/BRD2 in human HeLa cells assessed as BRD2 degradation measured after 36 hrs by Western blot analysis; assay type: cell-based
Target sequence in this assay (P25440 whole entry): as the sequence (P25440 whole entry, looked up) above
Target sequence in this assay (Q96SW2 whole entry): as the sequence (Q96SW2 whole entry partner) above

[30] = biological target: T2, Protein cereblon/Serine/threonine-protein kinase PLK1; assay: Protac activity at CRBN/PLK1 in human HeLa cells assessed as PLK1 degradation at 200 nM measured after 24 hrs by Western blot analysis; assay type: cell-based
[31] = biological target: T2, Protein cereblon/Serine/threonine-protein kinase PLK1; assay: Protac activity at CRBN/PLK1 in human HeLa cells assessed as PLK1 degradation measured after 36 hrs by Western blot analysis relative to control; assay type: cell-based
[32] = biological target: T4, Protein cereblon/Bromodomain-containing protein 2; assay: Protac activity at CRBN/BRD2 in human 22Rv1 cells assessed as BRD2 degradation measured after 36 hrs by Western blot analysis; assay type: cell-based
Target sequence in this assay (P25440 whole entry): as the sequence (P25440 whole entry, looked up) above
Target sequence in this assay (Q96SW2 whole entry): as the sequence (Q96SW2 whole entry partner) above

[33] = biological target: T4, Protein cereblon/Bromodomain-containing protein 2; assay: Protac activity at CRBN/BRD2 in human HeLa cells assessed as BRD2 degradation at 3 nM measured after 36 hrs by Western blot analysis; assay type: cell-based
Target sequence in this assay (P25440 whole entry, looked up): as the sequence (P25440 whole entry, looked up) above
Target sequence in this assay (Q96SW2 whole entry, looked up): as the sequence (Q96SW2 whole entry partner) above

[34] = system: CWR22R; assay: Down regulation of Bcl-2 mRNA expression in human 22Rv1 cells at 20 to 100 nM measured after 36 hrs by RT-qPCR analysis; assay type: functional, cell-based; details: dose 20-100 nM
[35] = system: MDA-MB-231; assay: Cytotoxicity against human MDA-MB-231 cells assessed as reduction in cell viability measured after 3 days by CCK-8 assay; assay type: functional, cell-based; details: MDA-MB-231, 72 h
[36] = biological target: T3, Protein cereblon/Bromodomain-containing protein 3; assay: Protac activity at CRBN/BRD3 in human 22Rv1 cells assessed as BRD3 degradation measured after 36 hrs by Western blot analysis; assay type: cell-based
[37] = biological target: T1, Protein cereblon/Bromodomain-containing protein 4; assay: Protac activity at CRBN/BRD4 in human HeLa cells assessed as BRD4 degradation measured after 36 hrs by Western blot analysis; assay type: cell-based
[38] = biological target: T1, Protein cereblon/Bromodomain-containing protein 4; assay: Protac activity at CRBN/BRD4 in human K562 cells assessed as BRD4 degradation at 10 nM measured after 36 hrs by Western blot analysis; assay type: cell-based
[39] = system: K562; assay: Cytotoxicity against human K562 cells assessed as reduction in cell viability measured after 3 days by CCK-8 assay; assay type: functional, cell-based; details: K562, 72 h
[40] = biological target: T2, Protein cereblon/Serine/threonine-protein kinase PLK1; assay: Protac activity at CRBN/PLK1 in human 22Rv1 cells assessed as PLK1 degradation measured after 36 hrs by Western blot analysis relative to control; assay type: cell-based
[41] = biological target: T1, Protein cereblon/Bromodomain-containing protein 4; assay: Protac activity at CRBN/BRD4 in human MDA-MB-231 cells assessed as BRD4 degradation at 10 nM measured after 36 hrs by Western blot analysis; assay type: cell-based
[42] = biological target: T2, Protein cereblon/Serine/threonine-protein kinase PLK1; assay: Protac activity at CRBN/PLK1 in human K562 cells assessed as PLK1 degradation at 10 nM measured after 36 hrs by Western blot analysis; assay type: cell-based
[43] = biological target: T1, Protein cereblon/Bromodomain-containing protein 4; assay: Protac activity at CRBN/BRD4 in human 22Rv1 cells assessed as BRD4 degradation measured after 36 hrs by Western blot analysis; assay type: cell-based
[44] = biological target: T1, Protein cereblon/Bromodomain-containing protein 4; assay: Protac activity at CRBN/BRD4 in human 22Rv1 cells assessed as BRD4 degradation at 50 nM measured after 4 hrs by Western blot analysis; assay type: cell-based
[45] = biological target: T2, Protein cereblon/Serine/threonine-protein kinase PLK1; assay: Protac activity at CRBN/PLK1 in human HeLa cells assessed as PLK1 degradation at 10 to 500 nM measured after 36 hrs by Western blot analysis; assay type: cell-based; details: dose 10-500 nM
[46] = biological target: T1, Protein cereblon/Bromodomain-containing protein 4; assay: Protac activity at CRBN/BRD4 in human 22Rv1 cells assessed as BRD4 degradation measured after 36 hrs by Western blot analysis relative to control; assay type: cell-based
[47] = biological target: T1, Protein cereblon/Bromodomain-containing protein 4; assay: Protac activity at CRBN/BRD4 in human HeLa cells assessed as BRD4 degradation at 20 nM measured after 24 hrs by Western blot analysis; assay type: cell-based

T1 sequence (Q96SW2 whole entry, looked up, other chains not shown): as the sequence (Q96SW2 whole entry partner) above

## CC[C@@H]1C(=O)N(C)c2cnc(Nc3ccc(C(=O)NC4CCN(CCCCCCCC(=O)Nc5cccc6c5C(=O)N(C5CCC(=O)NC5=O)C6=O)CC4)cc3OC)nc2N1C1CCCC1 (some centres not stated)
[1]
  Activity: 95%
[2]
  Activity: 28%
[3]
  IC50: 45 nM
[4]
  Activity: Active
[5]
  Activity: Active
[6]
  DC50: 4.68 nM
[7]
  DC50: 1.74 nM
[8]
  Activity: Active
[9]
  Activity: Active; Profound Degradation Observed
[10]
  Activity: Active
[11]
  Activity: inactive
[12]
  Activity: 82.8%
[13]
  Activity: Active; Higher Degradation Observed At 36 Hrs
[14]
  Activity: Active; Antiproliferative Effect Was Enhanced Even After 1 Week
[15]
  IC50: 44 nM
[16]
  Activity: Not active; No Significant Effect Observed
[17]
  Activity: Active
[18]
  Activity: 93.3%
[19]
  Activity: 91.5%
[20]
  Activity: Active; Effectively Reduced The Protein Level
[21]
  DC50: 1.64 nM
[22]
  Activity: 92%
[23]
  Activity: 93.4%
[24]
  Activity: Active
[25]
  Activity: Active; Nearly Complete Down Regulation Observed At 20 Nm
[26]
  Activity: 89.9%
[27]
  Activity: Active
[28]
  Activity: Active
[29]
  DC50: 6.45 nM
[30]
  Activity: Active; Moderate Effect Observed
[31]
  Activity: 78.6%
[32]
  DC50: 1.63 nM
[33]
  Activity: Active
[34]
  Activity: Active
[35]
  IC50: 274 nM
[36]
  DC50: 9.45 nM
[37]
  DC50: 1.03 nM
[38]
  Activity: Active
[39]
  IC50: 52 nM
[40]
  Activity: 78%
[41]
  Activity: Active
[42]
  Activity: Active
[43]
  DC50: 1.56 nM
[44]
  Activity: Active; Near-Complete Depletion Of Brd4 Observed
[45]
  Activity: Active; Higher Degradation Observed At 36 Hrs
[46]
  Activity: 96.5%
[47]
  Activity: Active; Demonstrated Most Potent Efficacy
